These are literature values, as cited in PubChem BioAssay AID1259409 (Chemical Carcinogenesis Research Information System (CCRIS), 2018).

This data set concerns rodent chemically induced tumor inhibition, incidence and multiplicity. Briefly: CCRIS tumor inhibitor studies. The following applies: Carcinogen: N-METHYL-N-NITROSOUREA, 684-93-5, Route [Inhibitor]: ORAL, Promoter: NONE USED. From the text:
The CCRIS database contains chemical records with carcinogenicity, mutagenicity, tumor promotion, and tumor inhibition test results. It was developed by the National Cancer Institute (NCI). Data are derived from studies cited in primary journals, current awareness tools, NCI reports, and other sources. Test results have been reviewed by experts in carcinogenesis and mutagenesis.
CCRIS provides historical information from the years 1985 - 2011. It is no longer updated.
This is an archive assay for CCRIS tumor inhibitor studies.

Regarding `CC1=C(/C=C/C(C)=C/C=C/C(C)=C/C(=O)NCCO)C(C)(C)CCC1`, the “tumour outcome (control, treated, inhibition, significance)” value is, setting by setting: (Dose [Inhibitor]: 2 MMOL/KG DIET DAILY STARTING 12 D AFTER CARCINOGEN TREATMENT THROUGH ABOUT 8 MO AFTER CARCINOGEN DOSE (STUDY DURATION:, Species: RAT, Strain/Sex: F344/MALE, Target Tissue: Type of Lesion: COLON: ADENOMA, Dose [Carcinogen]: 2.5 MG 1/WK FOR 2 WK) 16/39 (41%), 12/30 (40%), 5%, not significant; (Dose [Inhibitor]: 343 MG/KG DIET DAILY STARTING 1 WK AFTER LAST CARCINOGEN TREATMENT AND CONTINUING FOR 6 MO (STUDY DURATION: 9 MO), Species: HAMSTER, Strain/Sex: SYRIAN/MALE, Target Tissue: Type of Lesion: TRACHEA: BENIGN EPITHELIAL NEOPLASM, Dose [Carcinogen]: 0.5% IN 1 ML PHOSPHATE-BUFFERED SALINE 1/WK FOR 12 WK) 6/63 (10%), 6/62 (10%), 0%, not significant; (Dose [Inhibitor]: 343 MG/KG DIET DAILY STARTING 1 WK AFTER LAST CARCINOGEN TREATMENT AND CONTINUING FOR 6 MO (STUDY DURATION: 9 MO), Species: HAMSTER, Strain/Sex: SYRIAN/MALE, Target Tissue: Type of Lesion: TRACHEA: CARCINOMA, Dose [Carcinogen]: 0.5% IN 1 ML PHOSPHATE-BUFFERED SALINE 1/WK FOR 12 WK) 4/63 (6%), 11/62 (18%), -200%, not significant; (Dose [Inhibitor]: 343 MG/KG DIET DAILY STARTING 1 WK AFTER LAST CARCINOGEN TREATMENT AND CONTINUING FOR 6 MO (STUDY DURATION: 9 MO), Species: HAMSTER, Strain/Sex: SYRIAN/MALE, Target Tissue: Type of Lesion: TRACHEA: EPITHELIAL NEOPLASM, Dose [Carcinogen]: 0.5% IN 1 ML PHOSPHATE-BUFFERED SALINE 1/WK FOR 12 WK) 10/63 (16%), 17/62 (27%), -69%, not significant; (Dose [Inhibitor]: 343 MG/KG IN DIET DAILY FOR 6 MO STARTING 1 WK AFTER FINAL CARCINOGEN DOSE (STUDY DURATION: 9 MO), Species: HAMSTER, Strain/Sex: SYRIAN/MALE, Target Tissue: Type of Lesion: TRACHEA: BENIGN EPITHELIAL NEOPLASM, Dose [Carcinogen]: 0.5% SOLUTION FOR 5 SECOND EXPOSURE 1/WK FOR 12 WK) 6/63 (10%), 6/62 (10%), 0%, not significant; (Dose [Inhibitor]: 343 MG/KG IN DIET DAILY FOR 6 MO STARTING 1 WK AFTER FINAL CARCINOGEN DOSE (STUDY DURATION: 9 MO), Species: HAMSTER, Strain/Sex: SYRIAN/MALE, Target Tissue: Type of Lesion: TRACHEA: CARCINOMA, Dose [Carcinogen]: 0.5% SOLUTION FOR 5 SECOND EXPOSURE 1/WK FOR 12 WK) 4/63 (6%), 11/62 (18%), -200%, not significant. Further, the “tumour outcome (control, treated, inhibition, significance)” value was 10/63 (16%), 17/62 (27%), -69%, not significant (Dose [Inhibitor]: 343 MG/KG IN DIET DAILY FOR 6 MO STARTING 1 WK AFTER FINAL CARCINOGEN DOSE (STUDY DURATION: 9 MO), Species: HAMSTER, Strain/Sex: SYRIAN/MALE, Target Tissue: Type of Lesion: TRACHEA: EPITHELIAL NEOPLASM, Dose [Carcinogen]: 0.5% SOLUTION FOR 5 SECOND EXPOSURE 1/WK FOR 12 WK); 5/40 (13%), 1/40 (3%), 77%, not calculated (Dose [Inhibitor]: 686 MG/KG DIET DAILY FOR 24 WK STARTING 5 D AFTER LAST DOSE OF CARCINOGEN (STUDY DURATION: 32 WK), Species: RAT, Strain/Sex: F344/MALE, Target Tissue: Type of Lesion: COLON: SARCOMA, Dose [Carcinogen]: 0.5 MG 2/WK FOR 8 WK); 60%, 68%, -13%, not significant (Dose [Inhibitor]: 686 MG/KG DIET DAILY FOR 24 WK STARTING 5 D AFTER LAST DOSE OF CARCINOGEN (STUDY DURATION: 32 WK), Species: RAT, Strain/Sex: F344/MALE, Target Tissue: Type of Lesion: COLON: TUMOR, Dose [Carcinogen]: 0.5 MG 2/WK FOR 8 WK); 1/50 (2%), 2/49 (1%), 50%, not calculated (Dose [Inhibitor]: 686 MG/KG DIET DAILY FOR 38 WK STARTING 5 D AFTER LAST DOSE OF CARCINOGEN (STUDY DURATION: 44 WK), Species: RAT, Strain/Sex: F344/MALE, Target Tissue: Type of Lesion: COLON: MESOTHELIOMA, Dose [Carcinogen]: 0.5 MG, 2/WK FOR 6 WK STARTING 6 WK PRIOR TO AGENT TREATMENT); 62%, 61%, 2%, not significant (Dose [Inhibitor]: 686 MG/KG DIET DAILY FOR 38 WK STARTING 5 D AFTER LAST DOSE OF CARCINOGEN (STUDY DURATION: 44 WK), Species: RAT, Strain/Sex: F344/MALE, Target Tissue: Type of Lesion: COLON: TUMOR, Dose [Carcinogen]: 0.5 MG 2/WK FOR 6 WK); 31%, 27%, 13%, not significant (Dose [Inhibitor]: 686 MG/KG DIET DAILY FOR 48 WK STARTING 5 D AFTER LAST DOSE OF CARCINOGEN (STUDY DURATION: 52 WK), Species: RAT, Strain/Sex: F344/MALE, Target Tissue: Type of Lesion: COLON: TUMOR, Dose [Carcinogen]: 0.5 MG 2/WK FOR 4 WK).
